{"source": "patent US12186348B2", "about": "“Glycan strands and oligosaccharides derived from Streptococcus bacteria” (Meharry Medical College, priority 2018, dated 2025)", "key": {"MX2": {"test_system": "MX2", "test": "MX2 expression in THP-1 cells (qRT-PCR, Western-blot)", "type": "cell-based, human", "conditions": "THP-1 cells, 50, 100, 200, 300 μg/ml, overnight (FIG. 8B)", "protocol": "(§1) To determine whether CC5Ap induces MX2 expression, THP-1 cells were treated with different doses (units) of CC5Ap for 16 hours. The THP-1 cells were obtained from the NIH AIDS Reagent Program. One unit of CC5Ap is defined as the amount of CC5Ap needed to induce a 3-fold increase in A3G mRNA expression over a period of 16 hours, using 5×10^5 THP-1 cells in 500 μl of cell culture medium. MX2 expression was measured by qRT-PCR. After treatment the cells were either subjected to measuring MX2 expression by Western-blot analyses or infected with HIV-1.\n(§2) Synthetic G-M from Toronto Research Chemicals (Cat: A178230) was purchased. The synthetic G-M structure was confirmed by 1H NMR (D2O) and MS. Different doses of G-M were used to treat THP-1 cells. The THP-1 cells were obtained from the NIH AIDS Reagent Program. Specifically, 50 μg, 100 μg, 200 μg and 300 μg/ml G-M (shown in FIGS. 8A-8C as G-M 0.5, 1, 2, 3, respectively) were used to treat THP-1 cells. 1 unit CC5A A/E and CC5Ap were used as the controls. The cells were treated overnight. The mRNA levels of A3G and MX2 were measured by qRT-PCR."}, "HIV IIIB": {"test_system": "HIV IIIB", "test": "HIV IIIB replication in THP-1 cells, nine days culture", "type": "cell-based", "conditions": "THP-1 cells pre-treated 1 hour, qRT-PCR (FIG. 8C)", "protocol": "To determine whether G-M inhibits HIV IIIB replication, THP-1 cells were pre-treated 1 hour with G-M or CC5Ap. 100 ng […] content of IIIB was added into the cell culture to infect the cells overnight. Post-infection, cells were washed 2 times and cultured for nine days. The viral supernatant was subjected to qRT-PCR to measure viral release."}, "THP-1 cells": {"test_system": "THP-1 cells", "test": "Cell number of G-M treated THP-1 samples", "type": "cell-based, human"}, "A3G": {"test_system": "A3G", "test": "A3G mRNA expression in THP-1 cells by qRT-PCR", "type": "cell-based, human", "protocol": "Equal volumes of an S. cristatus CC5A whole cell extract (CC5A1E), fraction A (glycan strands and peptides), fraction B (glycan strands), and CC5Ap were used to treat THP-1 cells for 16 hours. THP-1 cell line is a human monocytic cell line derived from acute monocytic leukemia. The THP-1 cells were obtained from the NIH AIDS Reagent Program. qRT-PCR was used to detect the relative expression of A3G mRNA in THP-1 cells. PBS treated THP-1 cells were used as a control.\nThe cell wall of S. Mu was isolated from the bacteria and the isolated cell wall was subjected to the cell component isolation shown in FIG. 2A. Oligosaccharide molecules (from the same amount of bacteria) of CC5Ap and S. Mu were used to treat THP-1 cells. The THP-1 cells were obtained from the NIH AIDS Reagent Program. PBS and CC5A/E were used as the controls. A3G expression was measured by qRT-PCR.\nas §1, §2"}, "[1]": {"test_system": "Vpr-BlaM containing HIV NL4-3 virus", "test": "HIV-1 viral entry assay (Vpr-BlaM, CCF2) in THP-1 cells", "type": "cell-based", "conditions": "THP-1 cells pre-treated overnight, compared to untreated control (FIGS. 12, 14)", "description": "To determine whether the disclosed molecules have effects on HIV-1 viral entry, a sensitive and specific enzyme-based assay developed by Marielle et al (6) was used. THP-1 cells were pre-treated with AMD3100 (HIV entry inhibitor), CC5A/PBS (cell lysate of Streptococcus Cristatus CC5A), and different amounts of G-M (GlcNAc-MurNAc, which is a disaccharide molecule of glycan strain) overnight. PBS treated THP-1 cells were used as the untreated control. After washing, Vpr-BlaM containing HIV NL4-3 virus was used to infect the cells. After washing again, the cells were subjected to CCF2 staining overnight. The following day, the cells were analyzed by FACSAria III for CCF2 (green/FITC-A) and cleaved CCF2 (DAPI-A) florescence.\nTHP-1 cells were treated with CC5Ap and with cell lysate from Streptococcus Mutant (S. MuP). The protocol described in Example 10 was followed to test the effects of CC5Ap and S.MuP on HIV viral entry."}}}
{"smiles": "CC(=O)N[C@H]1[C@H](O[C@H]2[C@H](O[C@H](C)C(=O)O)[C@@H](NC(C)=O)C(O)O[C@@H]2CO)O[C@H](CO)[C@@H](O)[C@@H]1O", "note": "(stereo partly drawn) [G-M, N-Acetyl-D-glucosamine-(1-4)-N-acetylmuramic acid]", "values": [{"measurement": "MX2 mRNA expression", "setting": "MX2", "value": "enhanced A3G mRNA expression (FIG. 8A) and MX2 mRNA expression (FIG. 8B) in a dose-dependent manner"}, {"measurement": "HIV IIIB replication (viral release)", "setting": "HIV IIIB", "value": "inhibits HIV IIIB replication in a dose-dependent manner"}, {"measurement": "noticeable cell number difference between PBS and treated samples", "setting": "THP-1 cells", "value": "not observed"}, {"measurement": "experimentally determined activity of synthetic G-M", "setting": "A3G; 1 unit = amount inducing 3-fold A3G mRNA increase in 16 hours, 5×10^5 THP-1 cells in 500 μl", "value": 0.005, "unit": "units/μg"}, {"measurement": "A3G mRNA expression", "setting": "A3G; THP-1 cells, 50, 100, 200, 300 μg/ml, overnight (FIG. 8A)", "value": "enhanced A3G mRNA expression (FIG. 8A) and MX2 mRNA expression (FIG. 8B) in a dose-dependent manner"}, {"measurement": "share of the total CC5Ap activity", "setting": "A3G; based on G-M concentration of CC5Ap prep (about 100 μg/mL) and activity of synthetic G-M", "value": "about 5%"}, {"measurement": "relative HIV entry", "setting": "[1]", "value": "reduced HIV entry dramatically"}]}
